Results published in the RepoRT retention time repository (doi:10.1016/j.jhazmat.2019.121712).

Experiment: Thermo Scientific Acclaim RSLC 120 C18, 100 × 2.1 mm, 2.2 µm, 30 °C; A: 90% water + 10% methanol + 0.01% formic acid + 5 mM ammonium formate; B: methanol + 0.01% formic acid + 5 mM ammonium formate; gradient (min/%B) 0.1/1 3/39 14/99.9 16/99.9
Conditions: stereoisomer not certain

| LC retention time [min] | Structure (SMILES) |
| --- | --- |
| 8.18 | COC=C(C(=O)O)c1ccccc1Oc1cc(Oc2ccccc2C#N)ncn1 |
| 12.9 | CC(O)(C(N)=O)c1ccccc1 (stereo unspecified) |
| 3.62 | C=CCN1CCCC1CNC(=O)c1cc2n[nH]nc2cc1OC (stereo unspecified) |
| 4.71 | Cc1noc(NS(=O)(=O)c2ccc(N)cc2)c1C |
| 7.95 | CN(C)CCC=C1c2ccccc2C=Cc2ccccc21 |
| 4.81 | CCc1nnc(NS(=O)(=O)c2ccc(N)cc2)s1 |
| 5.04 | CCC12CCCN3CCc4c(n(c5ccccc45)C(O)(C(=O)OC)C1)C32 (stereo unspecified) |
| 8.51 | CNCCC=C1c2ccccc2CCc2ccccc21 |
| 7.86 | CN1CCC(=C2c3ccccc3CCc3sccc32)CC1 |
| 8.45 | CCOC(=O)C1CC(=O)C(=C(O)C2CC2)C(=O)C1 (stereo unspecified) |
| 6.04 | NC(=O)N1c2ccccc2C2OC2c2ccccc21 (stereo unspecified) |
| 4.76 | CN(C)CC(c1ccc(O)cc1)C1(O)CCCCC1 (stereo unspecified) |
| 3.56 | CCOc1ccc(S(=O)(=O)O)c2cccnc12 |
| 6.46 | NC(=O)N1c2ccccc2CC(=O)c2ccccc21 |
| 6.07 | CCC(CN(C)C)(CN(C)C)OC(=O)c1ccccc1 |
| 5.11 | Cn1nc2ccccc2n1 |
| 7.71 | C=CC1(C)CC(OC(=O)CSCCN(CC)CC)C2(C)C(C)CCC3(CCC(=O)C32)C(C)C1O (stereo unspecified) |
| 7.28 | CCOc1ccccc1OC(c1ccccc1)C1CNCCO1 (stereo unspecified) |
| 4.08 | CC1=C(C(=O)O)N2C(=O)C(NC(=O)C(N)c3ccccc3)C2SC1 (stereo unspecified) |
| 6.69 | CCC1OC(=O)CC(O)C(C)C(OC2OC(C)C(O)C(N(C)C)C2O)C(CCN2CC(C)CC(C)C2)CC(C)C(=O)C=CC(C)=CC1COC1OC(C)C(O)C(OC)C1OC (stereo unspecified) |
| 8.24 | COc1ccc(-c2oc3c(CC=C(C)C)c(OC4OC(CO)C(O)C(O)C4O)cc(O)c3c(=O)c2OC2OC(C)C(O)C(O)C2O)cc1 (stereo unspecified) |
| 9.91 | CCCc1nn(C)c2c(=S)nc(-c3cc(S(=O)(=O)N4CC(C)NC(C)C4)ccc3OCC)[nH]c12 (stereo unspecified) |
| 2.99 | COc1ccc2c3c1OC1CC(O)C=CC31CCN(C)C2 (stereo unspecified) |

| LC retention time [min] | Structure (SMILES) |
| --- | --- |
| 6.53 | O=c1[nH]c2ccccc2s1 |
| 8.52 | CN(CC=Cc1ccccc1)Cc1cccc2ccccc12 |
| 1.58 | CCOS(=O)(=O)O |
| 8.99 | COc1ccc2cc(C(C)C(=O)O)ccc2c1 (stereo unspecified) |
| 4.92 | COc1cc2nc(N3CCN(C(=O)C4CCCO4)CC3)nc(N)c2cc1OC (stereo unspecified) |
| 13.1 | CC=CC(=O)Oc1c(C(C)CCCCCC)cc([N+](=O)[O-])cc1[N+](=O)[O-] (stereo unspecified) |
| 2.71 | CC(C)C(N)C(=O)OCC(CO)OCn1cnc2c(=O)[nH]c(N)nc21 (stereo unspecified) |
| 4.09 | Cn1c(=O)c2c(ncn2CCO)n(C)c1=O |
| 5.93 | Oc1ccc(C=Cc2cc(O)cc(O)c2)cc1 |
| 9.41 | CCCC(C(=O)OCCN(CC)CC)(c1ccccc1)c1ccccc1 |
| 3.78 | O=C(Nc1cccc(C2=NCCN2)c1)Nc1cccc(C2=NCCN2)c1 |
| 9.24 | CC(=O)SC1CC2=CC(=O)CCC2(C)C2CCC3(C)C(CCC34CCC(=O)O4)C12 (stereo unspecified) |
| 11.6 | Cc1cccc(Nc2ccccc2C(=O)O)c1C |
| 9.83 | COc1cc(CNC(=O)CCCCC=CC(C)C)ccc1O |
| 7.53 | CC(CN1c2ccccc2Sc2ccccc21)N(C)C (stereo unspecified) |
| 11.5 | CCCc1nn(C)c2c(=S)nc(-c3cc(C(=S)N4CCN(C)CC4)ccc3OCC)[nH]c12 |
| 6.94 | CN1CCN2c3ccccc3Cc3ccccc3C2C1 (stereo unspecified) |
| 3.58 | Cc1ncc([N+](=O)[O-])n1CCO |
| 8.83 | COC(=O)C(Cc1ccccc1)NC(=O)C(CC(=O)O)NCCC(C)(C)C (stereo unspecified) |
| 9.09 | CCc1ccc(CCOc2ccc(CC3SC(=O)NC3=O)cc2)nc1 (stereo unspecified) |
| 2.96 | CC(C)NCC(O)c1ccc(NS(C)(=O)=O)cc1 (stereo unspecified) |
| 12.8 | CCC(C)N(C(=O)SCc1ccccc1)C(C)CC (stereo unspecified) |
| 9.25 | N#CSCSc1nc2ccccc2s1 |

| Structure (SMILES) | LC retention time [min] |
| --- | --- |
| CCOP(=S)(NC(C)CC)Oc1cc(C)ccc1[N+](=O)[O-] (stereo unspecified) | 11.2 |
| CCOC(=O)C1(c2ccccc2)CCC=CC1N(C)C (stereo unspecified) | 5.1 |
| CNCC12CCC(c3ccccc31)c1ccccc12 | 6.52 |
| O=C(c1cccc2ccccc12)c1cn(CCN2CCOCC2)c2cccc(O)c12 | 10.1 |
| CC=C1N(C)C(C)CC1(c1ccccc1)c1ccccc1 (stereo unspecified) | 6.38 |
| CNC(=O)ON=C(C)C(C)S(C)(=O)=O (stereo unspecified) | 3.66 |
| CNC(=O)Oc1cccc2c1OC(C)(C)C2O (stereo unspecified) | 5.09 |
| CNC(=O)Oc1cc(C)cc(C)c1 | 7.78 |
| CCOP(=O)(OCC)OP(=O)(OCC)OCC | 6.49 |
| COc1ccc(CC2c3cc(OC)c(OC)cc3CCN2C)cc1OC (stereo unspecified) | 4.71 |
| C=C1CC2C(CCC3(C)C(=O)CCC23)C2(C)C=CC(=O)C=C12 (stereo unspecified) | 9.03 |
| CC1CCC2N(C1)CC1C3CC4C(CC(O)C5CC(O)CCC54C)C3CCC1C2(C)O (stereo unspecified) | 6.44 |
| N#CC(CCN1CCC(C(N)=O)(N2CCCCC2)CC1)(c1ccccc1)c1ccccc1 | 8.19 |
| CCOP(=O)(OCC)OCC | 6.16 |
| CCOC(=O)C1(c2ccccc2)CCN(CCC(C#N)(c2ccccc2)c2ccccc2)CC1 | 10.4 |
| CC(C)OP(=O)(OC(C)C)SCc1ccccc1 | 10.6 |
| COc1cc(OC)nc(NC(=O)NS(=O)(=O)c2ncccc2C(=O)N(C)C)n1 | 6.62 |
| CN1CSC(=S)N(C)C1 | 3.97 |

| Structure (SMILES) | LC retention time [min] |
| --- | --- |
| C=C(C)C1CCC(C)=CC1c1c(O)cc(CCCCC)cc1O (stereo unspecified) | 12.7 |
| CN1C2CCC1CC(OC(=O)C(CO)c1ccccc1)C2 (stereo unspecified) | 4.36 |
| COC(=O)C1C(O)CC2CCC1N2C (stereo unspecified) | 1.38 |
| c1cc2c(c(NC3=NCCN3)c1)CCC2 | 4.76 |
| CCOP(=O)(NC(C)C)Oc1ccc(S(C)(=O)=O)c(C)c1 (stereo unspecified) | 7.21 |
| CC=C1CC(C)C(C)(O)C(=O)OCC2=CCN3CCC(OC1=O)C23 (stereo unspecified) | 4.62 |
| CCOP(=S)(OCC)Oc1cnc2ccccc2n1 | 10.8 |
| COc1ccc(C(=O)c2cn(CCCCCO)c3ccccc23)cc1 | 9.18 |
| CC(C(=O)c1ccc2c(c1)OCO2)N(C)C (stereo unspecified) | 3.78 |
| CCCCCCC(C)(C)c1ccc(C2CC(O)CCC2CCCO)c(O)c1 (stereo unspecified) | 12 |
| COc1ccc(CCN)cc1OC | 3.53 |
| c1ccc(C(c2ccccc2)C2CCCCN2)cc1 (stereo unspecified) | 6.3 |
| COP(=S)(OC)SCN1C(=O)c2ccccc2C1=O | 8.94 |
| COC(C)C(O)(C(=O)OCC1=CCN2CCC(O)C12)C(C)C (stereo unspecified) | 4.27 |
| CN(C)CCc1c[nH]c2ccc(O)cc12 | 2.82 |
| CCN(C)C(=O)Oc1cccc(C(C)N(C)C)c1 (stereo unspecified) | 4.74 |
| COC(=O)C(C)N(C(=O)Cc1ccccc1)c1c(C)cccc1C (stereo unspecified) | 10.9 |
